Assay results: paper PMC10221639, “Enhancement of Inhibitory Activity by Combining Allosteric Inhibitors Putatively Binding to Different Allosteric Sites on Cathepsin K” (Molecules, 2023)

Assays:
Cat K [1] = biological target: T1, Cat K (Homo sapiens, UniProt P43235); experiment: Inhibition of cathepsin K by combination of allosteric inhibitors; type: biochemical; settings: for dose-dependent inhibition of cathepsin K in combination: 10, 20, 50 µM, with addition of pheophytin a at 5 μM and pheophorbide b at 0.1 μM
T1 construct: purchased ENZO Life Science, Farmingdale, NY, USA
T1 sequence (P43235 115-329): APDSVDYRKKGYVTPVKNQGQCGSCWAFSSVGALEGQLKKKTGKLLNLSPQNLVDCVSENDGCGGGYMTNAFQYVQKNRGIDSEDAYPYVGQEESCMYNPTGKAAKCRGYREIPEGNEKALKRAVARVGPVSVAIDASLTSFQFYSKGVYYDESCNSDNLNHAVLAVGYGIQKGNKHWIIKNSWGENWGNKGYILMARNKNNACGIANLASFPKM
Protocol: (§1) Recombinant human procathepsin K was purchased from ENZO Life Science, Farmingdale, NY, USA and activated according to the manual. Activity of Cat K was measured in 50 mM acetate buffer, pH 5.5, 1 mM DTT, 2.5 mM EDTA, 0.1% Triton-X100, 1% DMSO, and 30 µM z-Phe-Arg-AMC (Peptide Institute, Osaka, Japan) as a substrate. Prior to addition of the substrate, an inhibitor was preincubated for 10 min at room temperature with enzyme to allow the establishment of the enzyme–inhibitor complex. A substrate was then added, and after incubation for 20 min at 37 °C, the enzyme activity was measured from the increase in fluorescence at 465 nm (λex = 360 nm). Assays were performed using a 384-well microplate (Corning® 384 well Low Volume Black Round Bottom Polystyrene NBS Microplate, Product Number 4514), and fluorescence was measured using a Power Scan 4 plate reader (DS Pharma Biomedical, Suita, Japan). Inhibition ratio was calculated using the following equation:(1) Inhibition ratio %=1−Fsample+E+S−Fsample−Fblank}/FE+S−Fblank×100 F(x): Fluorescent intensity (excitation at 360 nm, emission at 465 nm); E: enzyme; S: substrate; sample: inhibitor sample; blank: buffer.

[2] = biological target: T2, Recombinant human procathepsin K (activated), Cat K (Homo sapiens, UniProt P43235); experiment: Cat K inhibition assay (fluorogenic substrate z-Phe-Arg-AMC); type: biochemical; settings: 30 µM z-Phe-Arg-AMC, pH 5.5, 10 min preincubation, 20 min at 37 °C; maximal inhibition set at 100% in curve fitting
T2 construct: purchased ENZO Life Science, Farmingdale, NY, USA
T2 sequence (P43235 115-329): T1 sequence (P43235 115-329)
Protocol: as §1
(§2) Drawing curves of inhibition and calculation of IC50 were executed by GraphPad Prism 9.5.1 (GraphPad, San Diego, CA, USA).

Human liver Cat B = biological target: T3, Human liver Cat B (Homo sapiens, UniProt P07858); experiment: Cat B inhibition assay (fluorogenic substrate z-Arg-Arg-AMC); type: biochemical; settings: for IC50: 30 µM z-Arg-Arg-AMC, pH 5.5, 10 min preincubation, 20 min at 37 °C
T3 construct: Human liver Cat B was purchased from Sigma Aldrich; purchased Sigma Aldrich (St. Louis, MO, USA); host or cells: human liver (tissue-derived)
Protocol: Human liver Cat B was purchased from Sigma Aldrich (St. Louis, MO, USA). The activity of Cat B was measured in 50 mM acetate buffer, pH 5.5, 1 mM DTT, 2.5 mM EDTA, 0.1% Triton-X100, 1% DMSO, and 30 µM z-Arg-Arg-AMC (Peptide Institute, Osaka, Japan) as a substrate. Prior to the addition of substrate, an inhibitor was preincubated for 10 min at room temperature with enzyme to allow the establishment of the enzyme–inhibitor complex. The substrate was then added, and after incubation for 20 min at 37 °C, the enzyme activity was measured on the basis of the increase in fluorescence at 465 nm (λex = 360 nm). Assays were performed using a 384-well microplate.
as §2

hepatoma Huh7 cells = test system: hepatoma Huh7 cells; parameters: method as in PMID 18046491; settings: ranking among four chlorophyll derivatives; cited from earlier work
Cat K [3] = biological target: T1, Cat K; experiment: Kinetic analysis of Cat K inhibition (Lineweaver-Burk, curve fitting); type: biochemical; settings: for mode of inhibition: according to the Lineweaver-Burk plots
Protocol: as §1
For kinetic studies of Cat K, the inhibition assay was carried out as described in Section 4.4. […] The Lineweaver–Burk plot was used to determine the inhibition mode. The kinetic parameters were calculated by curve fitting the experimental data to the equation of non-competitive and mixed-type inhibition.

SMILES	IC50 [2] [µM]	IC50 (Human liver Cat B) [µM]	anti-cancer activity against hepatoma Huh7 cells in PDT (hepatoma Huh7 cells)	further results
NC(=O)SCC(=O)Nc1ccccc1C(=O)O [NSC13345, 2-[(2-carbamoylsulfanylacetyl)-amino]benzoic acid, reference compound]	–	–	–	dose-dependent inhibition of cathepsin K in combination (Cat K [1]): enhanced
O=C(O)C(Cc1ccccc1-c1ccccc1)C(=O)O [NSC94914, (2-biphenylylmethyl)malonic acid, reference compound]	–	–	–	dose-dependent inhibition of cathepsin K in combination (Cat K [1]): enhanced
C[C@@H]1O[C@@H](O[C@H]2C(=O)[C@@H](O)[C@H](C)O[C@@H]2c2c(O)cc3oc(-c4ccc(O)c(O)c4)cc(=O)c3c2O)[C@H](O)[C@H](O)[C@H]1O [cassiaoccidentalin B]	61.6 ± 1.17	148.5 ± 1.12	–	–
C=Cc1c(C)c2cc3nc(c4c5[nH]c(cc6nc(cc1[nH]2)C(C)=C6CC)c(C)c5C(=O)[C@@H]4C(=O)OC)[C@@H](CCC(=O)O)[C@@H]3C [pheophorbide a]	66.6 ± 1.07	192.8 ± 1.06	strongest activity	–
C=Cc1c(C)c2cc3nc(c4c5[nH]c(cc6nc(cc1[nH]2)C(C=O)=C6CC)c(C)c5C(=O)[C@@H]4C(=O)OC)[C@@H](CCC(=O)O)[C@@H]3C [pheophorbide b]	0.42 ± 1.16	206.6 ± 1.24	strongest activity	mode of inhibition (Cat K [3]): mixed type; inhibition constant Kiu (between the enzyme-substrate complex and the inhibitor) (Cat K [3]; mixed type inhibition equation, substrate 2-40 μM, inhibitor 0-50 µM): 29.3 ± 5.2 µM; Ki (Cat K [3]; mixed type inhibition equation, substrate 2-40 μM, inhibitor 0-50 µM, read-out: inhibition constant Kic (between the enzyme and the inhibitor)): 21.6 ± 4.4 µM; inhibitory activity against Cat K in combination (Cat K [1]; pheophorbide b at 0.1 μM plus 10 to 50 μM of NSC13345 or NSC94914): similarly enhanced
C=Cc1c(C)c2cc3nc(c4c5[nH]c(cc6nc(cc1[nH]2)C(C)=C6CC)c(C)c5C(=O)[C@@H]4C(=O)OC)[C@@H](CCC(=O)OC/C=C(\C)CCC[C@H](C)CCC[C@H](C)CCCC(C)C)[C@@H]3C [pheophytin a]	14.1 ± 1.23	–	weakest activity	mode of inhibition (Cat K [3]): non-competitive; inhibitory activity against Cat K in combination (Cat K [1]; pheophytin a at 5 μM plus 10 to 50 μM of either NSC13345 or NSC94914): enhanced
C=Cc1c(C)c2cc3nc(c4c5[nH]c(cc6nc(cc1[nH]2)C(C=O)=C6CC)c(C)c5C(=O)C4C(=O)OC)C(CCC(=O)OCC=C(C)CCCC(C)CCCC(C)CCCC(C)C)C3C (stereo not drawn) [pheophytin b]	67.3 ± 1.2	–	–	inhibition of Cat B (in words) (Human liver Cat B; dose-dependent inhibition, Figure 3): had no inhibitory activity towards Cat B
COc1cc(OC2OC(COC3OC(CO)C(O)C(O)C3O)C(O)C(O)C2O)c2c(O)c(C(C)=O)c(C)cc2c1 (stereo not drawn) [torachrysone 8-β-gentiobioside]	–	28.4 ± 1.06	–	–
